Measured values: patent US20220411525A1, “BCMA AS A TARGET FOR T CELL REDIRECTING ANTIBODIES IN B CELL LYMPHOMAS” (Janssen Pharmaceutica NV, priority 2021, published 2022)
“And” between values parts separate entries of the source, which are not always exact repeats. Identical values can stand only once.

Legend:
[1] = tested on: T cells of healthy donor PBMCs; assay: Activation, degranulation and cytokine production of healthy donor T cells co-cultured with B cell malignancy cell lines; type: cell-based, human
Description: (§1) Since the different B cell malignancy cell lines express BCMA to different extents, it was explored whether co-culture of these cell lines with the BCMAxCD3 BsAb Teclistamab in presence of HD PBMCs would lead to activation of T cells. To assess this, 4 cell lines were selected based on previously determined BCMA levels: RPMI-8226 (MM, positive control; high BCMA), BCWM.1 (WM, high BCMA), CII (CLL, intermediate BCMA) and JeKo-1 (MCL, low BCMA). Cell lines and age-matched HD PBMCs were cultured in presence of 100 ng/mL Teclistamab or the control BsAbs (BCMAxnull or nullxCD3) with or without 100 nM γ-secretase inhibitor. As a positive control, anti-CD3/CD28 antibodies were added to the co-cultures to induce TCR stimulation.
(§2) FIGS. 4A-4G provide the results of the assessment, which are that BCMAxCD3 DuoBody® induces activation, degranulation, cytokine secretion and cytotoxicity by T cells in the presence of B cell malignancy cell lines. PBMCs of healthy donors were left unstimulated or stimulated with 100 ng/mL BCMAxCD3 DuoBody®, BCMAxnull, nullxCD3 or anti-CD3/CD28 antibodies. Cells were left untreated (−) or treated with 100nM γ-secretase inhibitor (+). T cells were co-cultured with cell lines RPMI-8226 (multiple myeloma), JeKo-1 (mantle cell lymphoma), BCWM.1 (Waldenstrom's macroglobulinemia) or CII (chronic lymphocytic leukemia) in a 1:1 E:T ratio. After 48 hours activation by CD25 (FIG. 4A), degranulation (FIG. 4B), secretion of IFNy (FIG. 4D), IL-2 (FIG. 4E), TNFα (FIG. 4F), and cytotoxicity (FIG. 4G) were measured by flow cytometry (n=3-14). 4 days after incubation T cell proliferation was assessed by FACS (FIG. 4C) (n=3-9).
(§3) Activation, cytokine production and degranulation. PBMCs from HD or CLL patients were incubated in the presence of 100 ng/mL BCMAxCD3, BCMAxnull or nullxCD3 or stimulated with CD3 (clone 1XE) and CD28 (clone 15E8) antibodies for 2 days. Where indicated HD PBMCs were co-cultured in a 1:1 E:T ratio with RPMI-8226, JeKo-1, CII or BCWM1. 100 nM γ-secretase inhibitor (Ly411575) was added where indicated. […]

[2] = tested on: T cells of healthy donor PBMCs; assay: T cell proliferation of healthy donor PBMCs co-cultured with cell lines; type: cell-based, human; conditions: co-culture of HD T cells with B cell malignancy cell lines, 4 days
Description: as §2
T cell proliferation. PBMCs from HD patients were labelled with CTV and cultured alone or in 1:1 E:T ratio with RPMI-8226, JeKo-1, CII or BCWM1. PBMCs were incubated in the presence of 100 ng/mL BCMAxCD3, BCMAxnull or nullxCD3 or stimulated with CD3 (clone 1XE) and CD28 (clone 15E8) antibodies. 100 nM γ-secretase inhibitor (Ly411575) was added where indicated. After 4 days proliferation was measured by flow cytometry as described above.

[3] = tested on: B cell malignancy cell lines (RPMI-8226, JeKo-1, BCWM.1, CII); assay: Cytotoxicity assay, cell lines co-cultured with healthy donor PBMCs; type: cell-based
Description: as §1, §2
(§4) Cytotoxicity assay. […] Viability of the target cells was assessed using TO-PRO-3 (Invitrogen) and MitoTracker Orange (Invitrogen) using Flow Cytometry. Specific lysis of target cells was calculated as (% target cell death in treated sample—% cell death target cells in medium control)/(100—% cell death target cells in medium control)*100%. […]

primary CLL cells = assay: Cytotoxicity assay, primary CLL cells co-cultured with healthy donor T cells; type: cell-based, human; conditions: for average lysis of CLL cells: 48 h; for average lysis of CLL cells / average cell death of CLL cells: 10:1 E:T, per T cell donor; for average cell death of CLL cells: 96h
Description: Since primary CLL samples express BCMA at even lower levels compared to JeKo-1 cell lines, the present inventors explored whether this expression level was still high enough to induce effective lysis of CLL cells. To assess this HD T cells were co-cultured for 48-96 h with primary CLL cells in the presence of 100 ng/mL of Teclistamab with or without 100 nM γ-secretase inhibitor.
FIGS. 5A-5C illustrate how healthy donor T cells kill primary CLL cells in presence of BCMAxCD3 DuoBody, which is largely dependent on CD8^+ T cells. Measurement of cytotoxicity after PBMCs of healthy donors were left unstimulated or stimulated with 100 ng/mL BCMAxCD3 DuoBody®, in the absence (−) or presence (+) of 100 nM γ-secretase inhibitor. PBMCs were T cells were co-cultured with primary CLL in a 10:1 E:T ratio for (FIG. 5A) 48 h or (FIG. 5B) 96 h. […] (n=8) The P value was calculated by Wilcoxon test (FIG. 5A), paired t test (FIG. 5B) or repeated measures one-way ANOVA (FIG. 5C). Data are presented as mean±SD. *P<0.05; **P<0.01; ***P<0.001.
Cytotoxicity assay. Cell lines or primary CLL samples were labelled with Cell Trace Violet (CTV, Thermo Fisher Scientific) or carboxyfluorescein diacetate succinimidyl ester (CFSE, ThermoFisher Scientific) according to manufacturer's instructions and co-cultured with healthy donor PBMCs or CLL derived (autologous) T cells in different effector-target (E:T) ratios. Where indicated prior to co-culture CD4 and CD8 T cells were isolated using MACS beads (Miltenyi), according to manufacturer's instructions. Co-cultures were in the presence of 100 ng/mL BCMAxCD3, BCMAxnull or nullxCD3. 100nM γ-secretase inhibitor (Ly411575) was added where indicated. Viability of the target cells was assessed using TO-PRO-3 (Invitrogen) and MitoTracker Orange (Invitrogen) using Flow Cytometry. Specific lysis of target cells was calculated as (% target cell death in treated sample—% cell death target cells in medium control)/(100—% cell death target cells in medium control)*100%. Samples were excluded when cell death in medium controls exceeded 50%.

CLL derived T cells = assay: Activation and degranulation of CLL derived T cells in CLL PBMCs; type: cell-based, human; conditions: 96 h
Description: (§5) It was also assessed whether Teclistamab would induce activation and cytotoxicity of CLL derived T cells. To assess activation and degranulation, full PBMCs of CLL patients were treated with 100 ng/mL Teclistamab or control BsAbs for 96 h with or without presence of γ-secretase inhibition. […] For FIGS. 6A-6, CLL PBMCs were stimulated with 100 ng/mL BCMAxCD3, BCMAxnull, nullxCD3 or anti-CD3/CD28 antibodies. Flow cytometry analysis of (FIG. 6A) CD25 and (FIG. 6B) CD107a were performed after 4 days (n=3-5). For FIG. 6C, T cells from CLL patients were isolated and co-cultured in a 5:1 E:T ratio with their autologous CLL for 96 h in the presence or absence of 100 ng/mL BCMAxCD3 DuoBody and were left untreated (−) or treated with 100 nM γ-secretase inhibitor (+). (n=6) The P value was calculated ordinary one-way ANOVA (FIGS. 6A-6B) or paired t test (FIG. 6C). Data are presented as mean±SD. *P<0.05; **P<0.01; ***P<0.001; ****P<0.0001.
as §3

autologous CLL cells = assay: Cytotoxicity assay, CLL derived T cells co-cultured with autologous CLL cells; type: cell-based, human; conditions: 96 h, 5:1 E:T
Description: as §5, §4

[4] = 100 ng/mL plus 100 nM γ-secretase inhibitor
[5] = 100 ng/mL, no γ-secretase inhibitor
[6] = 100 ng/mL, with 100 nM γ-secretase inhibitor

Teclistamab: BCMAxCD3 bispecific antibody developed with Genmab DuoBody technology, provided by Janssen Pharmaceuticals
T cell activation and proliferation upon increasing BCMA levels by γ-secretase inhibition [1, 4]: not further enhanced
activation marker CD25 on CD4+ and CD8+ T cells ([1]; 100 ng/mL, 2 days co-culture with cell lines, 1:1 E:T): upregulation of the activation marker CD25
CD25 on T cells, PBMCs cultured without a target cell ([1]; 100 ng/mL, no target cell): did not lead to upregulation of CD25
T cell proliferation [2]: resulted in T cell activation, proliferation and cytotoxicity
cytotoxicity upon addition of γ-secretase inhibitor [3, 4]: did not improve
lysis of JeKo-1 compared to BCWM.1 or CII cell lines ([3]; 100 ng/mL, JeKo-1 (low BCMA)): more efficiently lysed
cell death of target cells ([3]; 100 ng/mL, co-culture with HD T cells, 1:1 E:T, 48 hours): induced cell death of target cells
average lysis of CLL cells (primary CLL cells; [5]): 12.9% and 16.4%
average lysis of CLL cells (primary CLL cells; [6]): 14.9% and 21.6%
killing by HD CD4+ T cells (primary CLL cells; 100 ng/mL, 96 h, 5:1 E:T, CD4+ T cells only): not able to induce killing
lysis by HD CD8+ T cells (primary CLL cells; 100 ng/mL, 96 h, 5:1 E:T, CD8+ T cells): up to 60%
average cell death of CLL cells (primary CLL cells; [5]): 15.8% and 20%
average cell death of CLL cells (primary CLL cells; [6]): 25,8% and 27.4%
lysis of CLL cells by healthy donor T cells (primary CLL cells; summary statement, in presence of teclistamab): up to 40%
CD25 activation in T cells of CLL patients upon addition of γ-secretase inhibitor (CLL derived T cells; 100 ng/mL plus γ-secretase inhibitor): enhanced
CD25 activation in CD4+ and CD8+ T cells of CLL patients (CLL derived T cells; 100 ng/mL, CLL PBMCs): trend towards increased CD25 activation
lysis of autologous CLL cells upon addition of γ-secretase inhibition (autologous CLL cells; [4]): slightly increased
mean lysis of autologous CLL cells (autologous CLL cells; [5]): 40%
